Measured values reported in article PMC12516686, “Design of 2‑Aminobenzothiazole Derivatives Targeting Trypanosomatid PTR1 by a Multidisciplinary Fragment Hybridization Approach” (Journal of Medicinal Chemistry, 2025).
Read-outs that look alike come from different tables or passages of the source.

Columns and labels:
[1] = system: Trypanosoma brucei brucei L427 wild-type (WT) bloodstream forms; test: Activity against T. brucei (resazurin-based assay); assay type: cell-based; details: at 10 μM
Protocol: The parasites were grown in 5 mL T25 ventilated flasks containing complete HMI-9 medium. The medium was supplemented with 10% heat-inactivated FBS and 100 IU/mL penicillin/streptomycin. To maintain the cultures, subpassages were performed every 2 days at a concentration of 1 × 10^4 cells/mL.
The efficacy of the compounds against Trypanosoma brucei brucei L427 wild-type (WT) bloodstream forms was assessed using a resazurin-based assay as described elsewhere. T. b. brucei L427 bloodstream forms were prepared at a cell density of 5 × 10^3 cells/mL in supplemented complete medium. Serial dilutions of the test compounds were prepared in a final volume of 100 μL, and 100 μL of the parasite suspension was added to each well containing the compound dilutions, resulting in a total volume of 200 μL per well. A dose–response curve for pentamidine was included as a quality control in each assay, and each condition was tested in duplicate. The plates were incubated for 72 h under the specified conditions for the parasite. After the incubation period, 20 μL of a 0.5 mM resazurin solution was added to each well, and the plates were incubated for an additional 4 h under the same conditions. Fluorescence was measured at an excitation wavelength of 544 nm and an emission wavelength of 590 nm using a Synergy 2 Multi-Mode Reader (Biotek, Winooski, VT, USA). The results were expressed as the percentage of parasite growth inhibition compared to the control (untreated parasites) and represented the average of at least three independent experiments.

[2] = system: THP-1-derived macrophages; test: Cytotoxicity assay (MTT) on THP-1-derived macrophages; assay type: cell-based, Human; details: cytotoxic concentration for THP1 cells
Protocol: Human leukemia cell line THP-1 (ATCC TIB202) cells were cultured in RPMI-1640 medium supplemented with 10% heat-inactivated fetal bovine serum (FBS), 2 mM L-glutamine, 100 IU/mL penicillin/streptomycin, and 20 mM HEPES. The cell line was maintained in a humidified incubator at 37 °C with 5% CO2. Subcultures were performed every 3 days in 20 mL of media at a concentration of 2 × 10^5 cells/mL in a T75 flask. All cell culture reagents were purchased from Lonza Bioscience (Morrisville, NC).
The cytotoxicity of the compounds on THP-1-derived macrophages was assessed using the colorimetric MTT assay (3-(4,5-dimethylthiazol-2-yl)-2,5-diphenyl tetrazolium bromide) as described elsewhere. THP-1 cells were suspended in RPMI complete medium at a density of 1 × 10^6 cells/mL, and 100 μL/well was seeded in a 96-well plate. The cells were differentiated into macrophages by adding 40 ng/mL of phorbol-myristate 13-acetate (PMA, Sigma, Saint Louis, MI, USA) for 24 h, followed by replacement with fresh medium for another 24 h. Subsequently, the cells were incubated with 100 μL of compounds, ranging from 100 to 12.5 μM, diluted in RPMI complete medium. Each condition was tested in triplicate. After 72 h of incubation at 37 °C with 5% CO2, the medium was removed, and 200 μL of 0.5 mg/mL MTT solution diluted in RPMI was added. The plates were incubated for an additional 4 h, after which 160 μL of the media was removed and replaced with 160 μL of 2-propanol. Absorbance was read at 570 nm using a Synergy 2 Multi-Mode Reader (Biotek, Winooski, VT, USA). Cytotoxicity was evaluated by presenting the CC50 (the concentration of the drug that reduces cell viability by 50%) interval or by determining the CC50 value through nonlinear regression analysis using GraphPad Prism version 8.1.1 for Windows (GraphPad Software, San Diego, CA, USA). Results represent the average of at least three independent experiments.

[3] = target: T1, TbPTR1 (Trypanosoma brucei brucei, UniProt O76290); test: TbPTR1 kinetic direct enzyme assay (NADPH consumption); assay type: biochemical; details: direct method of activity measurement, duplicate
T1 sequence (O76290 1-268): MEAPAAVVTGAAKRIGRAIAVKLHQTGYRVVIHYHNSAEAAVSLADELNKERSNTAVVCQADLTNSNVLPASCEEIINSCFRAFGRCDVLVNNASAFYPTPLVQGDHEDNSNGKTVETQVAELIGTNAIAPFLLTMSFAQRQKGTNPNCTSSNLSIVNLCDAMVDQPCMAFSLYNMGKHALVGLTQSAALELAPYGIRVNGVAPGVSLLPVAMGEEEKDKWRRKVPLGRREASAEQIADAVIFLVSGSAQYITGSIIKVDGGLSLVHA
Protocol: A direct kinetic assay was carried out to measure NADPH consumption over time using a Jasco V730 double-beam spectrophotometer. The assay was conducted as reported in ref . Thawed protein was incubated in 40 mM citrate buffer (pH 3.7) at a final concentration of 30 nM, along with the endogenous substrate at 27 μM. The reaction was carried out in a Kartell semimicro disposable polystyrene plastic cuvette (Kartell LABWARE, Milan, Italy). […] The maximum DMSO concentration was 2% in the assay solution. Each compound was tested in duplicate with a control assay without the inhibitor. The experiment was conducted 3 times. The reaction was initiated by adding NADP(H) to a final concentration of 134 μM in the cuvette, and the change in absorbance (ΔOD/min) at λ = 340 nm was monitored over 180 s at 25 °C with 27 μM. Six different concentrations were analyzed and fitted to a three-parameter logistical (3PL) model. A 95% confidence interval (CI) was used to calculate the standard error for each curve fitting, and a Student’s t test was performed for each duplicate with a significance threshold of p ≤ 0.05. Data fitting and statistical analysis were carried out using the GraphPad Prism Suite (2021).

[4] = system: Trypanosoma brucei brucei L427 wild-type (WT) bloodstream forms; parameters: method as in PMID 30908048; details: cited from earlier work; for T. brucei % cell growth inhibition: at 10 μM ref 22; for EC50: read-out: T. brucei EC50
[5] = target: T1, TbPTR1; parameters: method as in PMID 30908048; details: cited from earlier work; for IC50: reference compounds, SD within ± 10% ref 22; for TbPTR1 % enzyme inhibition: at 50 μM ref 22
[6] = system: THP-1-derived macrophages; parameters: method as in PMID 30908048; details: cytotoxic concentration for THP1 cells ref 22; cited from earlier work
[7] = system: L. infantum intracellular amastigotes; parameters: method as in PMID 30908048; details: at 10 μM; intracellular amastigotes ref 22; cited from earlier work
[8] = target: T2, LmPTR1 (Leishmania major, UniProt Q01782); parameters: method as in PMID 30908048; details: at 50 μM ref 22; cited from earlier work
T2 sequence (Q01782 1-288): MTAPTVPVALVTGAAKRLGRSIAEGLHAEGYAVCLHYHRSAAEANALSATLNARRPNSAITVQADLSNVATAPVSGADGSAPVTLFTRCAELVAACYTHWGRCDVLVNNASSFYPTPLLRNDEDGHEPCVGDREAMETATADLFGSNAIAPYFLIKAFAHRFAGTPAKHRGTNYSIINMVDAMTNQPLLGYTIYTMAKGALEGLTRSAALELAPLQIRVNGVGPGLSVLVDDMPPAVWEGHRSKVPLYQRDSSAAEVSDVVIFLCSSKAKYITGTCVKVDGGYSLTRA

[9] = target: the molecule itself; test: crystal structure; hanging-drop vapour diffusion, crystals soaked with inhibitors; space group P2(1), asymmetric unit holds a functional TbPTR1 tetramer; ternary complexes with NADP(H) and 1a, 2b, 2c, 2d or 2e

Molecule: 2-amino-N-(3-(trifluoromethyl)phenethyl)benzo[d]thiazole-6-carboxamide [Compound 2g]
- T. brucei % cell growth inhibition [1]: 31±7%
- CC50 [2]: > 100 µM
- IC50 [3]: 7 µM

Molecule: 2-amino-N-(4-(trifluoromethyl)phenethyl)benzo[d]thiazole-6-carboxamide [Compound 2f]
- CC50 [2]: > 100 µM
- IC50 [3]: 5.7 µM

Molecule: Nc1nc2ccc(SCc3ccc(Cl)c(Cl)c3)cc2s1 [III]
- T. brucei % cell growth inhibition [4]: 46±1%
- IC50 [5]: 0.9 µM

Molecule: Nc1nc2ccc(OCc3ccc(Cl)c(Cl)c3)cc2s1 [II]
- CC50 [6]: > 100 µM
- T. brucei % cell growth inhibition [4]: 42±11%
- IC50 [5]: 3.4 µM

Molecule: Nc1nc2ccc(S(=O)(=O)Cc3ccc(Cl)c(Cl)c3)cc2s1 [IV]
- L. infantum % cell growth inhibition [7]: 21±5%
- LmPTR1 % enzyme inhibition [8]: 26.9±1.8%
- T. brucei % cell growth inhibition [4]: 37±11%
- TbPTR1 % enzyme inhibition [5]: 16.7±8.4%

Molecule: Nc1nc2c(O)cc(C(=O)NCc3ccc(Cl)c(Cl)c3)cc2s1 [VII]
- L. infantum % cell growth inhibition [7]: 24±15%
- LmPTR1 % enzyme inhibition [8]: 8.7±0.6%
- EC50 [4]: 5.9 µM
- TbPTR1 % enzyme inhibition [5]: 11.8±4.6%

Molecule: COc1ccc(CN(Cc2ccc(Cl)c(Cl)c2)C(=O)c2ccc3nc(N)sc3c2)cc1OC [VI]
- EC50 [4]: 9.7 µM
- IC50 [5]: 15.9 µM

Molecule: Nc1nc2ccc(C(=O)NCc3ccc(Cl)c(Cl)c3)cc2s1 [V]
- IC50 [5]: 5.4 µM

B1: Trypanosoma brucei pteridine reductase 1 (enzyme)
chain: T1 sequence (O76290 1-268)
modifications: Cys168 oxidized to S-oxycysteine (Csx168) in the crystal structures
notes: Pteridine reductase 1 (PTR1) of Trypanosoma brucei; Ala268 is called the C-terminus; also called TbPTR1; PTR1; source: E. coli BL21(DE3), purified (IMAC on HisTrap FF, SEC on Superdex 200)
- stoichiometry N [9]: 4
